Results published in ChEMBL document CHEMBL2331479, “Superacid synthesis of halogen containing N-substituted-4-aminobenzene sulfonamides: new selective tumor-associated carbonic anhydrase inhibitors” (Bioorg Med Chem, 2013).
pKi: −log10 of the molar value.

Organism: Homo sapiens
Assay: Selectivity ratio of Ki for human carbonic anhydrase 1 to Ki for human carbonic anhydrase 9

Structure (SMILES)	Ratio Ki
CCCNS(=O)(=O)c1ccc(N)cc1	2.5
NS(=O)(=O)c1ccc(Nc2nc(Cl)nc(NCCO)n2)cc1	1460
Nc1ccc(S(=O)(=O)NCCC(F)F)cc1	2
Nc1ccc(S(=O)(=O)NCCC(F)Cl)cc1 (configuration not stated)	2.7
C=C(C)CNS(=O)(=O)c1ccc(N)cc1	2.1
CC(F)CNc1ccc(S(N)(=O)=O)cc1 (configuration not stated)	4
NS(=O)(=O)c1ccc2c(c1)CCCN2	3.8
CC(C)(F)CNS(=O)(=O)c1ccc(N)cc1	2.1
C=CCNc1ccc(S(N)(=O)=O)cc1	1.5
CC1CN(C)S(=O)(=O)c2ccc(N)cc21 (configuration not stated)	4.7
C=C(Cl)CN(CC(=C)Cl)S(=O)(=O)c1ccc(N)cc1	92.8
CC(F)(Cl)CNS(=O)(=O)c1ccc(N)cc1 (configuration not stated)	2.1
C=C(Cl)CNS(=O)(=O)c1ccc(N)cc1	62
CC(=O)Nc1ccc(S(=O)(=O)NCC(C)F)cc1 (configuration not stated)	1.1
CC(F)(F)CNS(=O)(=O)c1ccc(N)cc1	3.2

These compounds were tested against Carbonic anhydrase 2 (Homo sapiens, UniProt P00918) (assay: Inhibition of human recombinant carbonic anhydrase 2 preincubated for 15 mins by CO2 hydration stopped-flow assay).

Structure (SMILES)	pKi
CCCNS(=O)(=O)c1ccc(N)cc1	5.46
Nc1ccc(S(=O)(=O)NCCC(F)F)cc1	5.37
Nc1ccc(S(=O)(=O)NCCC(F)Cl)cc1 (configuration not stated)	6.10
C=C(C)CNS(=O)(=O)c1ccc(N)cc1	5.33
CC(F)CNc1ccc(S(N)(=O)=O)cc1 (configuration not stated)	7.24
NS(=O)(=O)c1ccc2c(c1)CCCN2	7.10
CC(C)(F)CNS(=O)(=O)c1ccc(N)cc1	7.12
C=CCNc1ccc(S(N)(=O)=O)cc1	5.63
CC1CN(C)S(=O)(=O)c2ccc(N)cc21 (configuration not stated)	6.37
C=C(Cl)CN(CC(=C)Cl)S(=O)(=O)c1ccc(N)cc1	5.30
CC(F)(Cl)CNS(=O)(=O)c1ccc(N)cc1 (configuration not stated)	5.85
C=C(Cl)CNS(=O)(=O)c1ccc(N)cc1	5.29
CC(=O)Nc1ccc(S(=O)(=O)NCC(C)F)cc1 (configuration not stated)	5.34
CC(F)(F)CNS(=O)(=O)c1ccc(N)cc1	7.07
Cc1ccc(S(=O)(=O)Nc2ccccc2)cc1	6.40

Each compound was assayed against Carbonic anhydrase 12 (Homo sapiens, UniProt O43570) (assay: Inhibition of human catalytic domain of carbonic anhydrase 12 preincubated for 15 mins by CO2 hydration stopped-flow assay).
Chain of Carbonic anhydrase 12 (O43570 whole entry, the tested form may be a part): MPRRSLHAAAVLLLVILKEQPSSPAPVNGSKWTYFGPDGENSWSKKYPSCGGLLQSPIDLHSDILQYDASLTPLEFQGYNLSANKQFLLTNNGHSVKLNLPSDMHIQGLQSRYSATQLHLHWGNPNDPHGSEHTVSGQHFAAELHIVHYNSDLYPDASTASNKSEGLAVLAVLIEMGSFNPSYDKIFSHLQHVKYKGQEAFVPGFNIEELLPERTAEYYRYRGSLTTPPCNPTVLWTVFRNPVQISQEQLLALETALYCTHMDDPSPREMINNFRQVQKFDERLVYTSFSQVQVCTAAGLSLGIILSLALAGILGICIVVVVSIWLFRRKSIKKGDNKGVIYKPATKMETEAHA

Structure (SMILES)	pKi
CCCNS(=O)(=O)c1ccc(N)cc1	5.73
Nc1ccc(S(=O)(=O)NCCC(F)F)cc1	5.94
Nc1ccc(S(=O)(=O)NCCC(F)Cl)cc1 (configuration not stated)	5.71
C=C(C)CNS(=O)(=O)c1ccc(N)cc1	5.89
CC(F)CNc1ccc(S(N)(=O)=O)cc1 (configuration not stated)	7.13
NS(=O)(=O)c1ccc2c(c1)CCCN2	7.09
CC(C)(F)CNS(=O)(=O)c1ccc(N)cc1	7.40
C=CCNc1ccc(S(N)(=O)=O)cc1	6.02
CC1CN(C)S(=O)(=O)c2ccc(N)cc21 (configuration not stated)	6.53
C=C(Cl)CN(CC(=C)Cl)S(=O)(=O)c1ccc(N)cc1	7.10
CC(F)(Cl)CNS(=O)(=O)c1ccc(N)cc1 (configuration not stated)	5.82
C=C(Cl)CNS(=O)(=O)c1ccc(N)cc1	7.02
CC(=O)Nc1ccc(S(=O)(=O)NCC(C)F)cc1 (configuration not stated)	5.96
CC(F)(F)CNS(=O)(=O)c1ccc(N)cc1	7.10

Organism: Homo sapiens
Assay: Selectivity ratio of Ki for human carbonic anhydrase 2 to Ki for human carbonic anhydrase 9

Structure (SMILES)	Ratio Ki
CCCNS(=O)(=O)c1ccc(N)cc1	1.7
NS(=O)(=O)c1ccc(Nc2nc(Cl)nc(NCCO)n2)cc1	23.1
Nc1ccc(S(=O)(=O)NCCC(F)F)cc1	2
Nc1ccc(S(=O)(=O)NCCC(F)Cl)cc1 (configuration not stated)	0.3
C=C(C)CNS(=O)(=O)c1ccc(N)cc1	1.4
CC(F)CNc1ccc(S(N)(=O)=O)cc1 (configuration not stated)	1.3
NS(=O)(=O)c1ccc2c(c1)CCCN2	1.6
CC(C)(F)CNS(=O)(=O)c1ccc(N)cc1	0.9
C=CCNc1ccc(S(N)(=O)=O)cc1	1.7
CC1CN(C)S(=O)(=O)c2ccc(N)cc21 (configuration not stated)	3.2
C=C(Cl)CN(CC(=C)Cl)S(=O)(=O)c1ccc(N)cc1	68.2
CC(F)(Cl)CNS(=O)(=O)c1ccc(N)cc1 (configuration not stated)	0.6
C=C(Cl)CNS(=O)(=O)c1ccc(N)cc1	57.5
CC(=O)Nc1ccc(S(=O)(=O)NCC(C)F)cc1 (configuration not stated)	1
CC(F)(F)CNS(=O)(=O)c1ccc(N)cc1	1.8

These compounds were tested against Carbonic anhydrase 1 (Homo sapiens, UniProt P00915) (assay: Inhibition of human recombinant carbonic anhydrase 1 preincubated for 15 mins by CO2 hydration stopped-flow assay).
Chain of Carbonic anhydrase 1 (P00915 whole entry): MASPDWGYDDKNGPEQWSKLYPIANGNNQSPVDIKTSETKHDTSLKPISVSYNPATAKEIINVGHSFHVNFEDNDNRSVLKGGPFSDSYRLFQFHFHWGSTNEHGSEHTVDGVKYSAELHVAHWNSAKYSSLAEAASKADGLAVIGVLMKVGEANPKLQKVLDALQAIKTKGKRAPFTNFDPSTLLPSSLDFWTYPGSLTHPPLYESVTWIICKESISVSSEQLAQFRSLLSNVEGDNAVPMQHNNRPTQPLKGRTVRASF

Structure (SMILES)	pKi
CCCNS(=O)(=O)c1ccc(N)cc1	5.29
Nc1ccc(S(=O)(=O)NCCC(F)F)cc1	5.37
Nc1ccc(S(=O)(=O)NCCC(F)Cl)cc1 (configuration not stated)	5.17
C=C(C)CNS(=O)(=O)c1ccc(N)cc1	5.15
CC(F)CNc1ccc(S(N)(=O)=O)cc1 (configuration not stated)	6.76
NS(=O)(=O)c1ccc2c(c1)CCCN2	6.72
CC(C)(F)CNS(=O)(=O)c1ccc(N)cc1	6.76
C=CCNc1ccc(S(N)(=O)=O)cc1	5.68
CC1CN(C)S(=O)(=O)c2ccc(N)cc21 (configuration not stated)	6.20
C=C(Cl)CN(CC(=C)Cl)S(=O)(=O)c1ccc(N)cc1	5.17
CC(F)(Cl)CNS(=O)(=O)c1ccc(N)cc1 (configuration not stated)	5.29
C=C(Cl)CNS(=O)(=O)c1ccc(N)cc1	5.25
CC(=O)Nc1ccc(S(=O)(=O)NCC(C)F)cc1 (configuration not stated)	5.32
CC(F)(F)CNS(=O)(=O)c1ccc(N)cc1	6.82
Cc1ccc(S(=O)(=O)Nc2ccccc2)cc1	6.38

Each compound was assayed against Carbonic anhydrase 9 (Homo sapiens, UniProt Q16790) (assay: Inhibition of human catalytic domain of carbonic anhydrase 9 preincubated for 15 mins by CO2 hydration stopped-flow assay).

Structure (SMILES)	pKi
CCCNS(=O)(=O)c1ccc(N)cc1	5.68
Nc1ccc(S(=O)(=O)NCCC(F)F)cc1	5.67
Nc1ccc(S(=O)(=O)NCCC(F)Cl)cc1 (configuration not stated)	5.61
C=C(C)CNS(=O)(=O)c1ccc(N)cc1	5.46
CC(F)CNc1ccc(S(N)(=O)=O)cc1 (configuration not stated)	7.36
NS(=O)(=O)c1ccc2c(c1)CCCN2	7.30
C=CCNc1ccc(S(N)(=O)=O)cc1	5.85
CC1CN(C)S(=O)(=O)c2ccc(N)cc21 (configuration not stated)	6.87
C=C(Cl)CN(CC(=C)Cl)S(=O)(=O)c1ccc(N)cc1	7.14
CC(F)(Cl)CNS(=O)(=O)c1ccc(N)cc1 (configuration not stated)	5.61
C=C(Cl)CNS(=O)(=O)c1ccc(N)cc1	7.05
CC(=O)Nc1ccc(S(=O)(=O)NCC(C)F)cc1 (configuration not stated)	5.36
CC(F)(F)CNS(=O)(=O)c1ccc(N)cc1	7.33
